One test has as its system HeLa cell line. Description: Proliferation assay (crystal violet staining). The test is classed as cell-based. The note with it: Homo sapiens, 96 h, 4 days incubation, range 0.001-10 μM, median, read-out: Biological Assay 2: Proliferation assay (HeLa cell line) median IC50. As for the experimental part:
Cultivated tumor cells (cells were ordered from ATCC, except HeLa-MaTu and HeLa-MaTu-ADR, which were ordered from EPO-GmbH, Berlin) were plated at a density of 1000 to 5000 cells/well, depending on the growth rate of the respective cell line, in a 96-well multititer plate in 200 μL of their respective growth medium supplemented 10% fetal calf serum. After 24 h, the cells of one plate (zero-point plate) were stained with crystal violet (see below), while the medium of the other plates was replaced by fresh culture medium (200 μL), to which the test substances were added in various concentrations (0 μM, as well as in the range of 0.001-10 μM; the final concentration of the solvent DMSO was 0.5%). The cells were incubated for 4 days in the presence of test substances. Cell proliferation was determined by staining the cells with crystal violet: the cells were fixed by adding 20 μL/measuring point of an 11% glutaric aldehyde solution for 15 min at rt. After three washing cycles of the fixed cells with water, the plates were dried at rt. The cells were stained by adding 100 μL/measuring point of a 0.1% crystal violet solution (pH 3.0). After three washing cycles of the stained cells with water, the plates were dried at rt. The dye was dissolved by adding 100 μL/measuring point of a 10% acetic acid solution. Absorbtion was determined by photometry at a wavelength of 595 nm. The change of cell number, in percent, was calculated by normalization of the measured values to the aborbtion values of the zero-point plate (=0%) and the absorbtion of the untreated (0 μm) cells (=100%). The IC50 values were determined by means of a 4 parameter fit.

In test [1] the target is T1, catalytic domain of human Bub1 (amino acids 704-1085) (Homo sapiens, UniProt O43683).
T1 construct: catalytic domain of human Bub1 (amino acids 704-1085); His6 (N); made in house; host or cells: Hi5 insect cells
Description: Bub1 kinase assay (TR-FRET). The test is classed as biochemical. Particulars: 10 μM ATP, 1 μM peptide substrate, median, read-out: Biological Assay 1: Bub1 kinase assay median IC50. An excerpt:
Bub1-inhibitory activities of compounds described in the present invention were quantified using a time-resolved fluorescence energy transfer (TR-FRET) kinase assay which measures phosphorylation of the synthetic peptide Biotin-Ahx-VLLPKKSFAEPG (C-terminus in amide form), purchased from e.g. Biosyntan (Berlin, Germany) by the (recombinant) catalytic domain of human Bub1 (amino acids 704-1085), expressed in Hi5 insect cells with an N-terminal His6-tag and purified by affinity- (Ni-NTA) and size exclusion chromatography.
In a typical assay 11 different concentrations of each compound (0.1 nM, 0.33 nM, 1.1 nM, 3.8 nM, 13 nM, 44 nM, 0.15 μM, 0.51 μM, 1.7 μM, 5.9 μM and 20 μM) were tested in duplicate within the same microtiter plate. To this end, 100-fold concentrated compound solutions (in DMSO) were previously prepared by serial dilution (1:3.4) of 2 mM stocks in a clear low volume 384-well source microtiter plate (Greiner Bio-One, Frickenhausen, Germany), from which 50 nL of compounds were transferred into a black low volume test microtiter plate from the same supplier. Subsequently, 2 μL of Bub1 (the final concentration of Bub1 was adjusted depending on the activity of the enzyme lot in order to be within the linear dynamic range of the assay: typically ˜200 ng/mL were used) in aqueous assay buffer [50 mM Tris/HCl pH 7.5, 10 mM magnesium chloride (MgCl2), 200 mM potassium chloride (KCl), 1.0 mM dithiothreitol (DTT), 0.1 mM sodium ortho-vanadate, 1% (v/v) glycerol, 0.01% (w/v) bovine serum albumine (BSA), 0.005% (v/v) Trition X-100 (Sigma), 1× Complete EDTA-free protease inhibitor mixture (Roche)] were added to the compounds in the test plate and the mixture was incubated for 15 min at 22° C. to allow pre-equilibration of the putative enzyme-inhibitor complexes before the start of the kinase reaction, which was initiated by the addition of 3 μL 1.67-fold concentrated solution (in assay buffer) of adenosine-tri-phosphate (ATP, 10 μM final concentration) and peptide substrate (1 μM final concentration). The resulting mixture (5 μL final volume) was incubated at 22° C. during 60 min, and the reaction was stopped by the addition of 5 μL of an aqueous EDTA-solution (50 mM EDTA, in 100 mM HEPES pH 7.5 and 0.2% (w/v) bovine serum albumin) which also contained the TR-FRET detection reagents (0.2 μM streptavidin-XL665 [Cisbio Bioassays, Codolet, France] and 1 nM anti-phosho-Serine antibody [Merck Millipore, cat. #35-001] and 0.4 nM LANCE EU-W1024 labeled anti-mouse IgG antibody [Perkin-Elmer, product no. AD0077, alternatively a Terbium-cryptate-labeled anti-mouse IgG antibody from Cisbio Bioassays can be used]). The stopped reaction mixture was further incubated 1 h at 22° C. in order to allow the formation of complexes between peptides and detection reagents. Subsequently, the amount of product was evaluated by measurement of the resonance energy transfer from the Eu-chelate-antibody complex recognizing the Phosphoserine residue to the streptavidin-XL665 bound to the biotin moiety of the peptide. To this end, the fluorescence emissions at 620 nm and 665 nm after excitation at 330-350 nm were measured in GTR-FRET plate reader, e.g. a Rubystar or Pherastar (both from BMG Labtechnologies, Offenburg, Germany) or a Viewlux (Perkin-Elmer) and the ratio of the emissions (665 nm/622 nm) was taken as indicator for the amount of phosphorylated substrate. The data were normalised using two sets of (typically 32-) control wells for high- (=enzyme reaction without inhibitor=0%=Minimum inhibition) and low- (=all assay components without enzyme=100%=Maximum inhibition) Bub1 activity. IC50 values were calculated by fitting the normalized inhibition data to a 4-parameter logistic equation (Minimum, Maximum, IC50, Hill; Y=Max+(Min−Max)/(1+(X/IC50)Hill)).
In general terms: Time-resolved FRET reads energy transfer from a long-lived donor to a nearby acceptor.

Molecules are shown by their SMILES.

T1 sequence (O43683 704-1085): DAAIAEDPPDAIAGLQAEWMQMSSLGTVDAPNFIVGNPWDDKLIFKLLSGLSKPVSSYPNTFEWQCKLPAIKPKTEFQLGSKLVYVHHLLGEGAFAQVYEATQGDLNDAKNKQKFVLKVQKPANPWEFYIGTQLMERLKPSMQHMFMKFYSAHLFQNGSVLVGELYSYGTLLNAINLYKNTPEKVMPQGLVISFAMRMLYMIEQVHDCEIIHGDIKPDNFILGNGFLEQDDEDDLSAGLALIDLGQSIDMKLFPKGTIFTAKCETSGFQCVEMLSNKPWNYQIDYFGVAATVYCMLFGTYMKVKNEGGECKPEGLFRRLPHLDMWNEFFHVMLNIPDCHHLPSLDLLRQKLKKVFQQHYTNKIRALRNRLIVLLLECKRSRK

For `CCOc1cc(F)c(Cn2nc(-c3ncc(O)c(Nc4ccncc4)n3)c3c2CCC3)c(F)c1` [Example 2-2-1, 2-[1-(4-ethoxy-2,6-difluorobenzyl)-1,4,5,6-tetrahydrocyclopenta-[c]pyrazol-3-yl]-4-(pyridin-4-ylamino)pyrimidin-5-ol], the values for the IC50 (in the test with HeLa cell line; in test [1]) were no less than 10 µM and 0.02 µM, respectively.

On to `COc1cnc(-c2nn(Cc3ccccc3F)c3c2CCC3)nc1Nc1ccncc1C#N` [Example 2-1-7, 4-({2-[1-(2-fluoro-benzyl)-1,4,5,6-tetrahydrocyclopenta [c]pyrazol-3-yl]-5-methoxy-pyrimidin-4-yl}amino) nicotinonitrile], for which the IC50 in the test on HeLa cell line is no less than 10 µM; in test [1], 0.2 µM.

For `COCC(=O)Nc1nc(-c2nn(Cc3ccccc3F)c3c2CCC3)nc(Nc2ccncc2)c1OC` [Example 2-1-10, N-{2-[1-(2-fluorobenzyl)-1,4,5,6-tetrahydrocyclopenta[c]pyrazol-3-yl]-5-methoxy-6-(pyridin-4-ylamino)pyrimidin-4-yl}-2-methoxyacetamide], the IC50 with HeLa cell line was no less than 10 µM; in test [1], 0.3 µM.

As to `CCOc1cc(F)c(Cn2nc(-c3ncc(O)c(N(CCN(C)C)c4ccncc4)n3)c3c2CCC3)c(F)c1` [Example 2-4-1, 4-{[2-(dimethylamino)ethyl](pyridin-4-yl)amino}-2-[1-(4-ethoxy-2,6-difluorobenzyl)-1,4,5,6-tetrahydrocyclopenta[c]pyrazol-3-yl]pyrimidin-5-ol], the figures for the IC50 (in the test on HeLa cell line; in test [1]) were no less than 10 µM and 0.2 µM, respectively.

As for `CS(=O)(=O)CCCOc1cnc(-c2nn(Cc3ccccc3F)c3c2CCC3)nc1Nc1ccncc1C(N)=O` [Example 2-3-9, 4-({2-[1-(2-fluoro-benzyl)-1,4,5,6-tetrahydrocyclopenta [c]pyrazol-3-yl]-5-[3-(methyl-sulfonyl)propoxy]pyrimidin-4-yl}amino) nicotinamide], the IC50 with HeLa cell line is no less than 10 µM; in test [1], 0.1 µM.

In the case of `COc1ccc(Cn2nc(-c3ncc(O)c(Nc4ccncc4)n3)c3c2CCC3)cc1` [Example 2-2-3, 2-[1-(4-methoxy-benzyl)-1,4,5,6-tetrahydrocyclopenta [c]pyrazol-3-yl]-4-(pyridin-4-ylamino) pyrimidin-5-ol], the IC50 is no less than 10 µM with HeLa cell line and 0.1 µM in test [1].

As to `NC(=O)c1cnccc1N(CCO)c1nc(-c2nn(Cc3ccccc3F)c3c2CCC3)ncc1OCCO` [Example 2-10-2, 4-[{2-[1-(2-fluoro-benzyl)-1,4,5,6-tetrahydrocyclopenta [c]pyrazol-3-yl]-5-(2-hydroxy-ethoxy)pyrimidin-4-yl}(2-hydroxy-ethyl)amino] nicotinamide], the IC50 was no less than 10 µM in the test with HeLa cell line and 2 µM in test [1].

In the case of `CCOC(=O)c1cnccc1Nc1nc(-c2nn(Cc3ccccc3F)c3c2CCC3)ncc1O` [Example 2-8-1, ethyl 4-({2-[1-(2-fluorobenzyl)-1,4,5,6-tetrahydrocyclopenta[c]pyrazol-3-yl]-5-hydroxypyrimidin-4-yl}amino)nicotinate], the IC50 in the test with HeLa cell line was no less than 10 µM; in test [1] it was 0.03 µM.

`CCOc1cc(F)c(Cn2nc(-c3ncc(OCC4(CO)COC4)c(Nc4ccncc4)n3)c3c2CCC3)c(F)c1` [Example 2-3-2, {3-[({2-[1-(4-ethoxy-2,6-difluoro-benzyl)-1,4,5,6-tetrahydrocyclopenta [c]pyrazol-3-yl]-4-(pyridin-4-ylamino)pyrimidin-5-yl}oxy)methyl]oxetan-3-yl}methanol]: the IC50 with HeLa cell line was no less than 10 µM; in test [1], 0.006 µM.

With `CCOc1cc(F)c(Cn2nc(-c3ncc(OC)c(Nc4ccncc4)n3)c3c2CCC3)c(F)c1` [Example 2-1-1, 2-[1-(4-ethoxy-2,6-difluorobenzyl)-1,4,5,6-tetrahydrocyclopenta-[c]pyrazol-3-yl]-5-methoxy-N-(pyridin-4-yl)pyrimidin-4-amine], the IC50 with HeLa cell line is 6 µM; in test [1], 0.005 µM.

On to `N#Cc1cnccc1Nc1nc(-c2nn(Cc3ccccc3F)c3c2CCC3)ncc1OCC1(CO)COC1` [Example 2-3-5, 4-[(2-[1-(2-fluoro-benzyl)-1,4,5,6-tetrahydrocyclopenta [c]pyrazol-3-yl]-5-{[3-(hydroxymethyl)oxetan-3-yl]methoxy}pyrimidin-4-yl)amino] nicotinonitrile], for which the IC50 is 4 µM with HeLa cell line and 0.04 µM in test [1].

`CS(=O)(=O)CCOc1cnc(-c2nn(Cc3ccccc3F)c3c2CCC3)nc1Nc1ccncc1C(N)=O` [Example 2-13-1, 4-({2-[1-(2-fluorobenzyl)-1,4,5,6-tetrahydrocyclopenta[c]pyrazol-3-yl]-5-[2-(methylsulfonyl)ethoxy]pyrimidin-4-yl}amino)nicotinamide]: the IC50 is no less than 10 µM with HeLa cell line and 0.03 µM in test [1].

`COc1cnc(-c2nn(Cc3ccccc3F)c3c2CCC3)nc1Nc1ccncc1` [Example 2-1-6, 2-[1-(2-fluoro-benzyl)-1,4,5,6-tetrahydrocyclopenta [c]pyrazol-3-yl]-5-methoxy-N-(pyridin-4-yl)pyrimidin-4-amine]: the values for the IC50 (with HeLa cell line; in test [1]) were no less than 10 µM and 0.1 µM, respectively.

As to `CCOc1cc(F)c(Cn2nc(-c3ncc(OCCO)c(Nc4ccncc4)n3)c3c2CCC3)c(F)c1` [Example 2-11-2, 2-({2-[1-(4-ethoxy-2,6-difluoro-benzyl)-1,4,5,6-tetrahydrocyclopenta [c]pyrazol-3-yl]-4-(pyridin-4-ylamino)pyrimidin-5-yl}oxy) ethanol], the values for the IC50 (in the test with HeLa cell line; in test [1]) were 4 µM and 0.004 µM, respectively.

Take `COc1cnc(-c2nn(Cc3ccccc3F)c3c2CCC3)nc1Nc1ccncc1C(N)=O` [Example 2-5-1, 4-({2-[1-(2-fluorobenzyl)-1,4,5,6-tetrahydrocyclopenta[c]pyrazol-3-yl]-5-methoxypyrimidin-4-yl}amino)nicotinamide]: the IC50 in the test on HeLa cell line is no less than 10 µM; in test [1], 0.01 µM.

As to `NC(=O)c1cnccc1Nc1nc(-c2nn(Cc3ccccc3F)c3c2CCC3)ncc1O` [Example 2-1-12, 4-({2-[1-(2-fluoro-benzyl)-1,4,5,6-tetrahydrocyclopenta [c]pyrazol-3-yl]-5-hydroxy-pyrimidin-4-yl}amino) nicotinamide], the IC50 is no less than 10 µM in the test on HeLa cell line and 0.2 µM in test [1].

Values taken from patent publication US9416125B2, “Substituted cycloalkenopyrazoles as BUB1 inhibitors for the treatment of cancer” (BAYER PHARMA AKTIENGESELLSCHAFT, priority 2012, dated 2016).
